From PubChem BioAssay (NCI)
Several values for one entry are separate records, joined by “and”; a condition that tells them apart may be missing. Identical values can stand only once.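 A five-concentration, 48-hour dose response in 96-well plates underlies each endpoint, interpolated linearly between surrounding concentrations. Here, GI50 denotes the concentration required for 50% inhibition of growth. TGI: total growth inhibition.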

What was measured:
Assay in all cases: DTP human tumour cell line panel, 48 h
SK-OV-3 ovarian = system: SK-OV-3 ovarian
HS 578T breast = system: HS 578T breast
UACC-62 melanoma = system: UACC-62 melanoma
OVCAR-3 ovarian = system: OVCAR-3 ovarian
SR leukemia = system: SR leukemia
A498 renal = system: A498 renal
T-47D breast = system: T-47D breast
HL-60(TB) leukemia = system: HL-60(TB) leukemia
HCC-2998 colon = system: HCC-2998 colon
UACC-257 melanoma = system: UACC-257 melanoma

| Structure (SMILES) | GI50 (SK-OV-3 ovarian) | TGI (SK-OV-3 ovarian) | GI50 (HS 578T breast) | TGI (HS 578T breast) | GI50 (UACC-62 melanoma) | TGI (UACC-62 melanoma) | GI50 (OVCAR-3 ovarian) | TGI (OVCAR-3 ovarian) | GI50 (SR leukemia) | TGI (SR leukemia) | GI50 (A498 renal) | TGI (A498 renal) | GI50 (T-47D breast) | TGI (T-47D breast) | GI50 (HL-60(TB) leukemia) | TGI (HL-60(TB) leukemia) | GI50 (HCC-2998 colon) | TGI (HCC-2998 colon) | GI50 (UACC-257 melanoma) | TGI (UACC-257 melanoma) |
| --- | --- | --- | --- | --- | --- | --- | --- | --- | --- | --- | --- | --- | --- | --- | --- | --- | --- | --- | --- | --- |
| Nc1ncccc1-c1nc2ccc(-c3ccccc3)nc2n1-c1ccc(C2(N)CCC2)cc1 | 0.166 µM | 3.01 µM | 0.253 µM | 2.31 µM | 1.37 µM | 2.99 µM | 0.353 µM | 10.6 µM | 1.74 µM | 4.75 µM | 0.0791 µM | 0.654 µM | < 0.0118 µM | 0.158 µM | 1.83 µM | 3.92 µM | 1.19 µM | 2.77 µM | 1.28 µM | 2.73 µM |
| C[C@@H]1COCCN1c1cc(-c2ccnn2C)c2ccnc(-c3ccn[nH]3)c2n1 | 0.0928 µM and 0.215 µM | 0.732 µM and 2.06 µM | 0.0994 µM and 0.291 µM | 0.643 µM and 2.06 µM | 0.125 µM and 0.163 µM | 0.876 µM and 1.3 µM | 0.223 µM and 0.406 µM |  | 0.0241 µM and 0.103 µM |  | 0.0212 µM and 0.0373 µM | 0.0838 µM and 0.226 µM | 0.159 µM and 0.384 µM | 0.79 µM and 2.81 µM | 0.106 µM and 0.194 µM | 0.66 µM and 3.16 µM | 0.0277 µM and 0.0581 µM | 18.6 µM and > 100 µM | 0.264 µM and 0.721 µM | 2.81 µM and 6.9 µM |
| O=C(Nc1ccccc1Cl)c1cccc(NC2=C(Cl)C(=O)N(Cc3ccccc3)C2=O)c1 | > 100 µM | > 100 µM | 30.2 µM | > 100 µM | 7.36 µM | 51 µM | 12.5 µM | 33.3 µM | 1.12 µM | 3.39 µM | 24.6 µM | 89.9 µM | > 100 µM | > 100 µM | 1.4 µM | 20.8 µM | 20.5 µM | 54.5 µM | 24.3 µM | > 100 µM |
| CC/C=C\C/C=C/C=C1/C(=O)C=C[C@@H]1C/C=C\CCCC(=O)OC | 9.25 µM | 49.9 µM | 15.1 µM | > 100 µM | 2.24 µM | 5.17 µM | 1.54 µM | 6.35 µM | 0.398 µM | 15.5 µM | 8.68 µM | 23 µM | 3.9 µM | 24 µM | 2.24 µM | 12.5 µM | 2.03 µM | 3.62 µM | 3.27 µM | 11.4 µM |
| COc1cc2c(cc1-c1coc3cc(OCC=C(C)C)ccc3c1=O)OCO2 |  | > 100 µM |  | > 100 µM |  | > 100 µM |  | > 100 µM |  | 33.3 µM |  | > 100 µM |  | > 100 µM |  | 35.7 µM |  | 44.8 µM |  | > 100 µM |
| C=C(Br)CNCC(=C)Br |  | > 100 µM |  | > 100 µM |  | > 100 µM |  | > 100 µM |  | > 100 µM |  | > 100 µM |  | > 100 µM |  | > 100 µM |  | > 100 µM |  | 98.6 µM |
| CCOC1OC(=O)[C@H]2[C@@H]1[C@@H]1CC[C@H]2O1 (some centres undefined) | > 100 µM | > 100 µM | > 100 µM | > 100 µM | > 100 µM | > 100 µM | > 100 µM | > 100 µM | 33.8 µM | > 100 µM | > 100 µM | > 100 µM | > 59.1 µM | > 100 µM | > 100 µM | > 100 µM | 13.4 µM | 29.5 µM | > 100 µM | > 100 µM |
| NNc1c2ccccc2nc2ccccc12 | 6.91 µM | > 100 µM | 16 µM | > 100 µM | 3.44 µM | 19.3 µM | 5.85 µM | 27.3 µM | 3.4 µM | 19.8 µM | 1.43 µM | 17.5 µM | 6.08 µM | 73.4 µM | 1.78 µM | 16.9 µM | 7.59 µM | 63.2 µM | 4.06 µM | 36.2 µM |
| O=NN(CCCl)C(=O)NC1CCC(=O)NC1=O (centres undefined) |  | > 1010 µM |  | 1100 µM |  | 192 µM |  | > 1160 µM |  | 674 µM |  | 470 µM |  | 892 µM |  | 359 µM |  | > 1160 µM |  | 975 µM |
| Oc1c(Cl)cc(Cl)c2cccnc12 | 3.71 µM | 16.2 µM | 6.88 µM | > 100 µM | 1.79 µM | 5.04 µM | 3.17 µM | 11.6 µM | 2.68 µM | 9.48 µM | 2.92 µM | 12.1 µM | 2.35 µM | 12 µM | 2.87 µM | 6.65 µM | 10.1 µM | 26 µM | 2.26 µM | 7.24 µM |
| Cn1nnc2c(C(N)=O)ncn2c1=O |  | 100 µM |  | > 100 µM |  | > 100 µM |  | > 100 µM |  | > 100 µM | > 100 µM | > 100 µM |  | > 100 µM |  | > 100 µM |  | > 100 µM |  | > 100 µM |
| O=C1CCC(N2C(=O)c3cccc(NCCCC4CCN(CCNC(=O)c5cc6c(o5)C(=O)c5ccccc5C6=O)CC4)c3C2=O)C(=O)N1 (centres undefined) | 2.88 µM | 8.52 µM | 1.95 µM | 6.9 µM | 0.304 µM | 0.98 µM | 0.218 µM | 0.761 µM | 0.106 µM | > 30.1 µM | 1.41 µM | 2.75 µM | 1.82 µM | 11 µM | 0.858 µM | 6.16 µM | 0.695 µM | 1.81 µM | 0.632 µM | 1.87 µM |
| CCN(CC)C(=S)SSC(=S)N(CC)CC | 49.4 µM and 58.9 µM | 173 µM | 20.9 µM and 105 µM | 64 µM and 501 µM | 15.2 µM and 18.1 µM | 30.4 µM and 44.5 µM | 15.1 µM and 15.3 µM | 32.5 µM and 29.4 µM | 0.785 µM | 34.4 µM | 49.9 µM and 109 µM | 228 µM | 15.7 µM and 13 µM | 51.3 µM and 39.3 µM | 25.9 µM and 22.4 µM | 56.3 µM and 52.5 µM | 28.7 µM and 31.3 µM | > 67.9 µM and 124 µM | 35.4 µM and 34.3 µM | > 88.2 µM and 148 µM |
| O=C1CSC(c2ccccc2O)N1c1nnc(Cn2ccnc2)o1 (centres undefined) | 27.6 µM | > 100 µM | 20.5 µM | > 100 µM | 11.5 µM | 26 µM | 3.04 µM | 16.4 µM | 2.93 µM | > 100 µM | 21 µM | 46 µM | 6.11 µM | 27.2 µM | 1.46 µM | > 100 µM | 22.8 µM | 89.5 µM | 16 µM | 40.6 µM |
